Measurements reported in patent US11186564B2, “Dual NAV1.2/5HT2a inhibitors for treating CNS disorders” (Sunovion Pharmaceuticals Inc., priority 2016, dated 2021).

Target: T1, recombinant human serotonin receptor 5-HT2A (Homo sapiens, UniProt P28223)
T1 construct: expressed in transfected cells; method B: loaded with Ca2+ dye
Assay: 5-HT2A antagonist Ca2+ assay in CHO-K1 cells (method A aequorin luminescence / method B FLIPR fluorescence)
Format: cell-based
Details: antagonist mode vs EC80 of reference agonist, method A or B, read-out: 5HT2A IC50
Description: The methods utilized to assess the inhibitory activity of compounds on recombinant human serotonin receptor 5-HT2A was based upon previously published approaches [Jerman J C, Brough S J, Gager T, Wood M, Coldwell M C, Smart D, Middlemiss D N. Pharmacological characterisation of human 5-HT2 receptor subtypes. European Journal of Pharmacology 2001 Feb. 23; 414(1):23-30; Le Poul E, Hisada S, Mizuguchi Y, Dupriez V J, Burgeon E, Detheux M. Adaptation of aequorin functional assay to high throughput screening. J Biomolecular Screening 2002 February; 7(1):57-65.] The 5-HT2A receptor signals through Gq-phospholipase signaling cascade, which leads to a transient increase in free intracellular […] concentration. Both 5-HT2A assay methods rely upon monitoring these changes in Ca^2+ concentration.
In method A [Le Poul E, Hisada S, Mizuguchi Y, Dupriez V J, Burgeon E, Detheux M. (2002)], CHO-K1 cells engineered to stably co-express both recombinant human 5-HT2A and mitochondrial apoaequorin are used. […] For agonist testing, 50 microliters of cell suspension is mixed with 50 microliters of a solution containing test compound or reference agonist in a 96-well standard geometry microtiter plate. The resulting emission of light was recorded using a Hamamatsu Functional Drug Screening System 6000 (FDSS 6000) luminometer. For antagonist testing, 100 microliters of the solution of reference agonist (to yield an agonist concentration, EC80, sufficient to cause the cells to generate an 80% maximal luminescence response in the absence of any antagonist) is injected into the mix of cells and test compound, 15 minutes after the first injection. The resulting emission of light is recorded using Hamamatsu FDSS 6000 luminometer. IC50 values are calculated (from compound concentration dependent inhibition of agonist-induced 5-HT2A-dependent light emission) by non-linear least squares regression of the data (percent inhibition) onto equation (1) above.
In method B [Jerman J C, Brough S J, Gager T, Wood M, Coldwell M C, Smart D, Middlemiss D N. (2001)], CHO-K1 cells which had been engineered to stably co-express recombinant human 5-HT2A are used in assay done similarly to method A. In method B, the cells are loaded with a fluorogenic Ca^2+ indicator dye by pre-incubation. Addition of the reference agonist serotonin causes a transient increase in fluorescence in a suspension of the loaded cells, which can be detected using the Molecular Devices fluorometric imaging plate reader (FLIPR), a high-throughput platform for 96-well cell-based assays. Addition of test compounds that are 5-HT2A antagonists, prior to the addition of the agonist (to yield an agonist concentration, EC80, sufficient to cause the cells to generate an 80% maximal fluorescence response in the absence of any antagonist), reduces the amount of fluorescence detected by the FLIPR upon agonist addition. IC50 values are calculated (from compound concentration dependent inhibition of agonist-induced 5-HT2A-dependent fluorescence) by non-linear least squares regression of the data (percent inhibition) onto equation (1) above.

T1 sequence (P28223 whole entry): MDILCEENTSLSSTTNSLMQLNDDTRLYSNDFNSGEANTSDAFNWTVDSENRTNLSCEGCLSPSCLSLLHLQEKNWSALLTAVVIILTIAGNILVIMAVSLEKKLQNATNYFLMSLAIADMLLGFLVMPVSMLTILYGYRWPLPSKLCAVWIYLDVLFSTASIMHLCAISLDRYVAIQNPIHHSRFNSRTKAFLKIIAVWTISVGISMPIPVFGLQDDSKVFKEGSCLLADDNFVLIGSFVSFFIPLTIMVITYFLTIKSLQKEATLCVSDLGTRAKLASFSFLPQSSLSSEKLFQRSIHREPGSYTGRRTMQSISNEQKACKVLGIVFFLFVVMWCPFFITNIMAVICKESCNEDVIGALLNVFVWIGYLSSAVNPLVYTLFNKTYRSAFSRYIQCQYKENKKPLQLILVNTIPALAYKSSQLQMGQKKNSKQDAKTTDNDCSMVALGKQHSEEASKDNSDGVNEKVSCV

| Structure (SMILES) | IC50 |
| --- | --- |
| OC(COC1CCCCC1)CN1CCCC12CCCN(c1ccccc1)C2 (centres unmarked) [Example 353, 1-(cyclohexyloxy)-3-(7-phenyl-1,7-diazaspiro[4.5]decan-1-yl)propan-2-ol] | > 16700 nM |
| COc1cccc(O[C@H]2CCN(CC(O)CO[C@@H]3CCc4ccccc43)C2)c1 (stereo partly drawn) [Example 41, 1-(((R)-2,3-dihydro-1H-inden-1-yl)oxy)-3-((S)-3-(3-methoxyphenoxy)pyrrolidin-1-yl)propan-2-ol] | 7130 nM |
| COc1ccc(O[C@@H]2CCN(CCN3CCc4ccccc4C3=O)C2)cc1 [Example 27, (R)-2-(2-(3-(4-methoxyphenoxy)pyrrolidin-1-yl)ethyl)-3,4-dihydroisoquinolin-1(2H)-one] | 2800 nM |
| COc1ccc2c(c1)C(CN1C[C@H]3CC[C@@H]1CN3c1ccccc1)CC2 (single isomer, unassigned) [Compound 313] | > 10000 nM |
| COc1ccc2c(c1)C(CN1CCC(OCc3ccncc3)CC1)CC2 (centres unmarked) [Example 248, 4-(((1-((6-methoxy-2,3-dihydro-1H-inden-1-yl)methyl)piperidin-4-yl)oxy)methyl)pyridine] | > 3160 nM |
| COCc1ccc(OC2CCN(CC3CCc4ncccc43)CC2)cc1 (centres unmarked) [Example 127, 5-((4-(4-(methoxymethyl)phenoxy)piperidin-1-yl)methyl)-6,7-dihydro-5H-cyclopenta[b]pyridine] | > 12000 nM |
| COc1ccccc1OC1CCN(CC2(C)CCc3ccccc32)CC1 (centres unmarked) [Example 96, 4-(2-methoxyphenoxy)-1-((1-methyl-2,3-dihydro-1H-inden-1-yl)methyl)piperidine] | > 10000 nM |
| O=C1c2ccccc2CCN1CCN1CC[C@@H](Oc2ccccn2)C1 [Example 15, (R)-2-(2-(3-(pyridin-2-yloxy)pyrrolidin-1-yl)ethyl)-3,4-dihydroisoquinolin-1(2H)-one] | > 16700 nM |
| CC(CN1CCc2ccccc2C1=O)N1CC[C@@H](Oc2ccc(F)cc2)C1 (stereo partly drawn) [Example 33, 2-(2-((R)-3-(4-fluorophenoxy)pyrrolidin-1-yl)propyl)-3,4-dihydroisoquinolin-1(2H)-one] | > 10000 nM |
| COc1ccccc1O[C@@H]1CCN(CC2Cc3ccccc3C2)C[C@H]1C [Example 145, (3R,4R)-1-((2,3-dihydro-1H-inden-2-yl)methyl)-4-(2-methoxyphenoxy)-3-methylpiperidine] | 10 nM |
| C[C@@H]1C[C@]2(CCc3ccccc3O2)CCN1CCN1CCc2ccccc2C1=O [Example 423, 2-(2-((2S,2′R)-2′-methylspiro[chromane-2,4′-piperidin]-1′-yl)ethyl)-3,4-dihydroisoquinolin-1(2H)-one] | 2810 nM |
| O[C@@H](COC1CCCCC1)CN1CCC[C@H](Oc2ccc(F)cc2)C1 [Example 269, (R)-1-(cyclohexyloxy)-3-((S)-3-(4-fluorophenoxy)piperidin-1-yl)propan-2-ol] | 2170 nM |
| COc1ccccc1O[C@H]1CCN(CCC2CCOc3ccccc32)[C@@H](C)C1 (stereo partly drawn) [Example 181, (2S,4S)-1-(2-(chroman-4-yl)ethyl)-4-(2-methoxyphenoxy)-2-methylpiperidine] | > 10000 nM |
| OC(CO[C@H]1CCc2ccccc21)CN1CC[C@H](Oc2ccc(F)cc2)C1 (stereo partly drawn) [Example 43, 1-(((S)-2,3-dihydro-1H-inden-1-yl)oxy)-3-((S)-3-(4-fluorophenoxy)pyrrolidin-1-yl)propan-2-ol] | 2080 nM |
| N#Cc1ccc(O[C@H]2CCN(CCN3CCc4ccccc4C3=O)C2)cc1 [Example 32, (S)-4-((1-(2-(1-oxo-3,4-dihydroisoquinolin-2(1H)-yl)ethyl)pyrrolidin-3-yl)oxy) benzonitrile] | > 16700 nM |
| c1ccc2c(c1)CC1(CCN(CC3COc4ccccc43)CC1)O2 (centres unmarked) [Example 395, 1′-((2,3-dihydrobenzofuran-3-yl)methyl)-3H-spiro[benzofuran-2,4′-piperidine]] | > 10000 nM |
| N#Cc1ccc(OC2CCN(CC3Cc4cccnc4C3)CC2)cc1 (centres unmarked) [Example 156, 4-((1-((6,7-dihydro-5H-cyclopenta[b]pyridin-6-yl)methyl)piperidin-4-yl)oxy) benzonitrile] | 2010 nM |
| O[C@@H](CO[C@@H]1CCCc2ccccc21)CN1CCN(Cc2ccccc2)CC1 [Example 84, (R)-1-(4-benzylpiperazin-1-yl)-3-(((R)-1,2,3,4-tetrahydronaphthalen-1-yl)oxy)propan-2-ol] | > 16700 nM |
| OC(CO[C@@H]1CCCc2ccccc21)CN1CC[C@H](Oc2ccc(F)cc2)C1 (stereo partly drawn) [Example 51, 1-((S)-3-(4-fluorophenoxy)pyrrolidin-1-yl)-3-(((R)-1,2,3,4-tetrahydronaphthalen-1-yl)oxy)propan-2-ol] | 490 nM |

Next, values leading:

| IC50 | Structure (SMILES) |
| --- | --- |
| 220 nM | COCc1cccc(OC2CCN(CC3Cc4cccnc4C3)CC2)c1 (centres unmarked) [Example 152, 6-((4-(3-(methoxymethyl)phenoxy)piperidin-1-yl)methyl)-6,7-dihydro-5H-cyclopenta[b]pyridine] |
| 20 nM | Fc1ccc(OC2CCCN(CC3Cc4cccnc4C3)CC2)cc1 (centres unmarked) [Example 273, 6-((4-(4-fluorophenoxy)azepan-1-yl)methyl)-6,7-dihydro-5H-cyclopenta[b]pyridine] |
| 370 nM | C[C@@H]1C[C@]2(CCc3ccccc3O2)CCN1CCO[C@H]1CCc2ccccc21 [Example 435, (2S,2′R)-1′-(2-(((S)-2,3-dihydro-1H-inden-1-yl)oxy)ethyl)-2′-methylspiro[chromane-2,4′-piperidine]] |
| 980 nM | COc1ccc2c(c1)C(CN1CCC(OCc3cccnc3)CC1)CC2 (centres unmarked) [Example 246, 3-(((1-((6-methoxy-2,3-dihydro-1H-inden-1-yl)methyl)piperidin-4-yl)oxy)methyl)pyridine] |
| 1450 nM | Fc1ccc(O[C@H]2CCN(CC3CCc4ncccc43)C2)cc1 (stereo partly drawn) [Example 4, 5-(((S)-3-(4-fluorophenoxy)pyrrolidin-1-yl)methyl)-6,7-dihydro-5H-cyclopenta[b]pyridine] |
| 490 nM | Cc1cccc(N2CCN(CC3(O)CCOc4ccccc43)CC2)c1C (centres unmarked) [Example 58, 4-((4-(2,3-dimethylphenyl)piperazin-1-yl)methyl)chroman-4-ol] |
| 860 nM | COc1cccc(OC2CCN(CC3CCOc4ccccc43)CC2)c1 (centres unmarked) [Example 164, 1-(chroman-4-ylmethyl)-4-(3-methoxyphenoxy)piperidine] |
| 1100 nM | OC1(CN2CCC3(CCc4ccccc4O3)CC2)COCc2ccccc21 (centres unmarked) [Example 413, 4-(spiro[chromane-2,4′-piperidin]-1′-ylmethyl)isochroman-4-ol] |
| 260 nM | COCc1cccc(OC2CCN(CC3CCOc4ccccc43)CC2)c1 (centres unmarked) [Example 163, 1-(chroman-4-ylmethyl)-4-(3-(methoxymethyl)phenoxy)piperidine] |
| 360 nM | CC1(OCC(O)CN2CCN(c3ccccc3)CC2)COc2ccccc21 (centres unmarked) [Example 79, 1-((3-methyl-2,3-dihydrobenzofuran-3-yl)oxy)-3-(4-phenylpiperazin-1-yl)propan-2-ol] |
| 760 nM | COc1cccc(OC2CCN(CC3Cc4cccnc4C3)CC2)c1 (centres unmarked) [Example 153, 6-((4-(3-methoxyphenoxy)piperidin-1-yl)methyl)-6,7-dihydro-5H-cyclopenta[b]pyridine] |
| 50 nM | C[C@H]1C[C@@]2(CCc3ccccc3O2)CCN1CCN1CCc2ccccc2C1=O [Example 424, 2-(2-((2R,2′S)-2′-methylspiro[chromane-2,4′-piperidin]-1′-yl)ethyl)-3,4-dihydroisoquinolin-1(2H)-one] |
| 1780 nM | Fc1cccc2c1C(CN1CCC(Oc3ccncc3)CC1)CC2 (centres unmarked) [Example 118, 4-((1-((7-fluoro-2,3-dihydro-1H-inden-1-yl)methyl)piperidin-4-yl)oxy)pyridine] |
| 740 nM | c1ccc2c(c1)CCC1(CCN(CC3CCc4cnccc43)CC1)O2 (centres unmarked) [Example 408, 1′-((6,7-dihydro-5H-cyclopenta[c]pyridin-5-yl)methyl)spiro[chromane-2,4′-piperidine]] |
| 50 nM | O[C@H](COC1CCCCC1)CN1CCC(Oc2ccccc2)CC1 [Example 233, (S)-1-(cyclohexyloxy)-3-(4-phenoxypiperidin-1-yl)propan-2-ol] |
| 430 nM | COc1ccccc1OC1CCN(CC2CCc3ccccc32)CC1 (centres unmarked) [Example 105, 1-((2,3-dihydro-1H-inden-1-yl)methyl)-4-(2-methoxyphenoxy)piperidine] |
